Values of other authors, collected in PubChem BioAssay AID1259409 (Chemical Carcinogenesis Research Information System (CCRIS), 2018).

Test system: rodent chemically induced tumor inhibition, incidence and multiplicity
Test: CCRIS tumor inhibitor studies
Conditions: Carcinogen: 2,2'-DIHYDROXY-DI-N-PROPYLNITROSAMINE, 13147-25-6, Carcinogen: 2,2'-DIHYDROXY-DI-N-PROPYLNITROSAMINE, 13147-25-6, Dose [Inhibitor]: 0, Route [Inhibitor]: ORAL, Species: RAT, Strain/Sex: F344/MALE, Promoter: NONE USED

Structure (SMILES): CCCCCCCCCCCCCCCC(=O)CC(=O)CCCCCCCCCCCCCCC
- tumour outcome (control, treated, inhibition, significance) (36909-64-6, N-ETHYL-N-HYDROXYETHYL- NITROSAMINE, 3,2'DIMETHYL-4-A, 36909-64-6, N-ETHYL-N-HYDROXYETHYL- NITROSAMINE, 3,2'DIMETHYL-4-A, 0.2% IN DIET BEGINNING 1 WK POST LAST CARCINOGEN DOSE AND CONTINUING FOR 32 WK (STUDY DURATION: 36 WK), Target Tissue: Type of Lesion: URINARY BLADDER: CARCINOMA, Dose [Carcinogen]: 1000 MG/KG IP DHPN 2X, 1500 MG/KG GAV EHEN 2X AND 75 MG/KG SC DMAB 3X GIVEN OVER THE INITIAL 3 WK AT 3-4 D INTERVALS): 1/14 (7%), 1/15 (7%), 0%, not significant
- tumour outcome (control, treated, inhibition, significance) (53609-64-6, N-ETHYL-N-HYDROXYETHYL- NITROSAMINE, 3,2'-DIMETHYL-4-, 53609-64-6, N-ETHYL-N-HYDROXYETHYL- NITROSAMINE, 3,2'-DIMETHYL-4-, 0.2% IN DIET BEGINNING 1 WK POST LAST CARCINOGEN DOSE AND CONTINUING FOR 32 WK (STUDY DURATION: 36 WK), Target Tissue: Type of Lesion: LARGE INTESTINE: ADENOMA, Dose [Carcinogen]: 1000 MG/KG IP DHPN 2X, 1500 MG/KG GAV EHEN 2X AND 75 MG/KG SC DMAB 3X GIVEN OVER THE INITIAL 3 WK PERIOD AT 3-4 D INTERV): 7/14 (50%), 7,15 (47%), 6%, not calculated
- outcome (53609-64-6, N-ETHYL-N-HYDROXYETHYL- NITROSAMINE, 3,2'-DIMETHYL-4-, 53609-64-6, N-ETHYL-N-HYDROXYETHYL- NITROSAMINE, 3,2'-DIMETHYL-4-, 0.2% IN DIET BEGINNING 1 WK POST LAST CARCINOGEN DOSE AND CONTINUING FOR 32 WK (STUDY DURATION: 36 WK), Target Tissue: Type of Lesion: URINARY BLADDER: PAPILLOMA, Dose [Carcinogen]: 1000 MG/KG IP DHPN 2X, 1500 MG/KG GAV EHEN 2X AND 75 MG/KG SC DMAB 3X GIVEN OVER THE INITIAL 3 WK PERIOD AT 3-4 D INTERV): 0/14 (0%), 3/15 (20%), -100%, not calculated
- tumour outcome (control, treated, inhibition, significance) (53609-64-6, N-ETHYL-N-HYDROXYETHYL- NITROSAMINE, 3,2'-DIMETHYL-4-, 53609-64-6, N-ETHYL-N-HYDROXYETHYL- NITROSAMINE, 3,2'-DIMETHYL-4-, 02% IN DIET BEGINNING 1 WK POST LAST CARCINOGEN DOSE AND CONTINUING FOR 32 WK (STUDY DURATION: 36 WK), Target Tissue: Type of Lesion: LUNG: CARCINOMA, Dose [Carcinogen]: 1000 MG/KG IP DHPN 2X , 1500 MG/KG GAV EHEN 2X AND 75 MG/KG SC DMAB 3X GIVEN OVER THE INITIAL 3 WK PERIOD AT 3-4 D INTER): 1/14 (7%), 3/15 (20%), -186%, not calculated
- tumour outcome (control, treated, inhibition, significance) (53609-64-6, N-ETHYL-N-HYDROXYETHYL- NITROSAMINE, 3,2'DIMETHYL-4-A, 53609-64-6, N-ETHYL-N-HYDROXYETHYL- NITROSAMINE, 3,2'DIMETHYL-4-A, 0.2% IN DIET BEGINNING 1 WK POST LAST CARCINOGEN DOSE AND CONTINUING FOR 32 WK (STUDY DURATION: 36 WK), Target Tissue: Type of Lesion: LIVER: HEPATOCELLULAR CARCINOMA, Dose [Carcinogen]: 1000 MG/KG IP DHPN 2X, 1500 MG/KG GAV EHEN 2X AND 75 MG/KG SC DMAB 3X GIVEN OVER THE INITIAL 3 WK AT 3-4 D INTERVALS): 6/14 (43%), 1/15 (7%), 84%, p<0.05
- tumour outcome (control, treated, inhibition, significance) (53609-64-6, N-ETHYL-N-HYDROXYETHYLNITROSAMINE, 3,2'-DIMETHYL-1,4-, 53609-64-6, N-ETHYL-N-HYDROXYETHYLNITROSAMINE, 3,2'-DIMETHYL-1,4-, 0.2% IN DIET FOR 4 WK BEGINNING 1 D PRIOR TO FIRST CARCINOGEN DOSE (STUDY DURATION: 36 WK), Target Tissue: Type of Lesion: KIDNEY: ADENOMA, Dose [Carcinogen]: 1000 MG/KG BW DHPN TWICE, 1500 MG/KG EHEN TWICE, 75 MG/KG BW DMAB 3 TIMES, SEQUENTIALLY OVER 3 WK): 6/10 (60%), 7/13 (54%), 10%, not significant
- tumour outcome (control, treated, inhibition, significance) (53609-64-6, N-ETHYL-N-HYDROXYETHYLNITROSAMINE, 3,2'-DIMETHYL-1,4-, 53609-64-6, N-ETHYL-N-HYDROXYETHYLNITROSAMINE, 3,2'-DIMETHYL-1,4-, 0.2% IN DIET FOR 4 WK BEGINNING 1 D PRIOR TO FIRST CARCINOGEN DOSE (STUDY DURATION: 36 WK), Target Tissue: Type of Lesion: LUNG: ADENOMA, Dose [Carcinogen]: 1000 MG/KG BW DHPN TWICE, 1500 MG/KG EHEN TWICE, 75 MG/KG BW DMAB 3 TIMES, SEQUENTIALLY OVER 3 WK): 5/10 (50%), 6/13 (46%), 8%, not significant
- tumour outcome (control, treated, inhibition, significance) (53609-64-6, N-ETHYL-N-HYDROXYETHYLNITROSAMINE, 3,2'-DIMETHYL-4-AMINO-, 53609-64-6, N-ETHYL-N-HYDROXYETHYLNITROSAMINE, 3,2'-DIMETHYL-4-AMINO-, 0.2% IN DIET FOR 32 WK BEGINNING 1 WK POST CARCINOGEN TREATMENT (STUDY DURATION: 36 WK), Target Tissue: Type of Lesion: KIDNEY: ADENOMA, Dose [Carcinogen]: 1000 MG/KG BW DHPN TWICE, 1500 MG/KG BW EHEN TWICE, 75 MG/KG BW 3 TIMES ADMINISTERED OVER FIRST 3 WK): 6/14 (43%), 5/15 (33%), 23% , not significant
- tumour outcome (control, treated, inhibition, significance) (53609-64-6, N-ETHYL-N-HYDROXYETHYLNITROSAMINE, 3,2'-DIMETHYL-4-AMINO-, 53609-64-6, N-ETHYL-N-HYDROXYETHYLNITROSAMINE, 3,2'-DIMETHYL-4-AMINO-, 0.2% IN DIET FOR 32 WK BEGINNING 1 WK POST CARCINOGEN TREATMENT (STUDY DURATION: 36 WK), Target Tissue: Type of Lesion: KIDNEY: NEPHROBLASTOMA, Dose [Carcinogen]: 1000 MG/KG BW DHPN TWICE, 1500 MG/KG BW EHEN TWICE, 75 MG/KG BW 3 TIMES ADMINISTERED OVER FIRST 3 WK): 2/14 (14%), 2/15 (13%), 7%, not significant
- tumour outcome (control, treated, inhibition, significance) (53609-64-6, N-ETHYL-N-HYDROXYETHYLNITROSAMINE, 3,2'-DIMETHYL-4-AMINO-, 53609-64-6, N-ETHYL-N-HYDROXYETHYLNITROSAMINE, 3,2'-DIMETHYL-4-AMINO-, 0.2% IN DIET FOR 32 WK BEGINNING 1 WK POST CARCINOGEN TREATMENT (STUDY DURATION: 36 WK), Target Tissue: Type of Lesion: KIDNEY: TRANSITIONAL CELL CARCINOMA, Dose [Carcinogen]: 1000 MG/KG BW DHPN TWICE, 1500 MG/KG BW EHEN TWICE, 75 MG/KG BW 3 TIMES ADMINISTERED OVER FIRST 3 WK): 1/14 (7%), 1/15 (7%), 0%, not significant
